Experiments:
[1] = test system: PCOS and/or anovulation in female patients; test: GLUCOREIN beverage (chlorogenic acid and L-cysteine) in anovulatory female patients with PCOS symptoms attempting to become pregnant; format: in vivo, human; details: CLOMID added to GLUCOREIN regimen after three months; three patients with body mass index over 35; read after four months of treatment
Description: Ten female patients, between the ages of 25 and 37, each anovulatory, were evaluated. […] Chronic anovulation is a common cause of infertility. These patients were also attempting to become pregnant and presented with multiple symptoms of PCOS. Their diets were supplemented with GLUCOREIN medical food beverage (a powdered solid including the components set forth in Table 1 mixed in 8 ounces of water). Per instructions for use, the patients each consumed one eight-ounce serving of the GLUCOREIN beverage each day, typically in the morning hours.
After four months of treatment, with all ten patients continuing with the protocol, the results were as follows: […]

PCOS = details: variety of clinical trials, literature; cited from earlier work

Row | SMILES | patients who tested positive for ovulation [1] | treatment or prevention of PCOS (PCOS)
1 | CCN(CC)CCOc1ccc(C(=C(Cl)c2ccccc2)c2ccccc2)cc1 [CLOMID, clomiphene] | none | 
2 | CC(=O)N[C@@H](CS)C(=O)O [NAC, N-acetyl-L-cysteine] |  | shown to treat or prevent PCOS

Reference: patent US20140045937A1, “METHODS OF TREATING POLYCYSTIC OVARIAN SYNDROME USING CHLOROGENIC ACID” (Oculus Innovative Sciences, Inc., priority 2012, published 2014)
